Common to all, as to format: in vivo
In one series the test system is Alopecurus myosuroides. Put plainly: Herbicidal action and crop plant compatibility, pre-emergence (3.2). To be noted: 80 g/ha, about 4 weeks. The source says: (§1) 3.2 In further trials in the greenhouse, seeds of crop plants and seeds of harmful plants are placed in pots in sandy loam soil, covered with earth and cultivated under good growth conditions. The compounds (I) according to the invention, formulated in the form of wettable powders (WP), are then applied as aqueous suspension or emulsion at a water application rate of 300 l/ha (converted) with the addition of 0.2% of wetting agent to the surface of the covering soil. After the test plants have been kept in the greenhouse under optimum growth conditions for about 4 weeks, the activity of the preparations is rated visually in comparison to untreated controls in percent (%): For example, 100% activity=the plants have died, 50% herbicidal activity or damage=the plants have been reduced by 50% or the plant mass has been reduced by 50%, 0% activity=like control plants.

Series [1] has as its system Veronica persica. Described as above. The conditions noted are these: 80 g/ha, about 4 weeks.
Description: as §1

The subject of the next series is Lolium multiflorum. The description is as above. To be noted: 80 g/ha, about 4 weeks.
Description: as §1

Series [2] deals with Echinochloa crus-galli. Described as above. The conditions noted are these: 80 g/ha, about 4 weeks.
Description: as §1

Series [3] concerns Setaria viridis. The description is as above. The conditions noted are these: 80 g/ha, about 4 weeks.
Description: as §1

The subject of series [4] is Polygonum convolvulus. The series is described as above. The conditions noted are these: 80 g/ha, about 4 weeks.
Description: as §1

The subject of series [5] is Viola tricolor. Described as above. To be noted: 80 g/ha, about 4 weeks.
Description: as §1

The test system of a further series is Amaranthus retroflexus. Described as above. To be noted: 80 g/ha, about 4 weeks.
Description: as §1

Series [6] deals with Avena fatua. Described as above. To be noted: 80 g/ha, about 4 weeks.
Description: as §1

The subject of series [7] is a plurality of harmful plants. Put plainly: Herbicidal pre-emergence action. The conditions noted are these: 320 g or less of active substance per hectare. The text has this:
Seeds of monocotyledonous and dicotyledonous weed plants and crop plants are placed in wood-fiber pots in sandy loam and covered with soil. The compounds (I) according to the invention, formulated in the form of wettable powders (WP), are then applied as aqueous suspension or emulsion at a water application rate of 600 l/ha (converted) with the addition of 0.2% of wetting agent to the surface of the covering soil.
After the treatment, the pots are placed in a greenhouse and kept under good growth conditions for the test plants. After about 3 weeks, the effect of the preparations is scored visually in comparison with untreated controls as percentages. For example, 100% activity=the plants have died, 50% herbicidal activity or damage=the plants have been reduced by 50% or the plant mass has been reduced by 50%, 0% activity=like control plants.

A further series relates to oilseed rape. Put plainly: Herbicidal action and crop plant compatibility, post-emergence (3.3). The conditions noted are these: 80 g/ha, 4 weeks after the treatment. The procedure:
(§2) 3.3 In further trials in the greenhouse, seeds of crop plants and seeds of harmful plants are placed in pots in sandy loam soil, covered with earth and cultivated under good growth conditions. The test plants are treated at the 2-3-leaf stage, where the compounds (I) according to the invention, formulated in the form of wettable powders (WP), are applied by spraying as aqueous suspension or emulsion at a water application rate of […] (converted) with the addition of 0.2% of wetting agent to the green parts of the plants. 4 weeks after the treatment and after the test plants have been kept in the greenhouse under optimum growth conditions, the activity of the preparations is rated visually in comparison to untreated controls in percent (%): For example, 100% activity=the plants have died, 50% herbicidal activity or damage=the plants have been reduced by 50% or the plant mass has been reduced by 50%, 0% activity=like control plants.

Series [8] deals with Veronica persica. Described as above. The conditions noted are these: 80 g/ha, 4 weeks after the treatment. The method, then: as §2
Series [9] deals with Echinochloa crus-galli. The series is described as above. The conditions noted are these: 80 g/ha, 4 weeks after the treatment. The method, then:
as §2

In series [10] the test system is Setaria viridis. The series is described as above. To be noted: 80 g/ha, 4 weeks after the treatment. The procedure: as §2
The subject of series [11] is Polygonum convolvulus. The description is as above. The conditions noted are these: 80 g/ha, 4 weeks after the treatment. The procedure:
as §2

In series [12] the test system is Viola tricolor. Described as above. The conditions noted are these: 80 g/ha, 4 weeks after the treatment. The procedure: as §2
A further series deals with wheat. Described as above. To be noted: 80 g/ha, 4 weeks after the treatment. The procedure:
as §2

Series [13] deals with Avena fatua. The description is as above. To be noted: 80 g/ha, 4 weeks after the treatment. The procedure:
as §2

`COC(=O)C[C@@H](c1ccc(Cl)cc1)[C@@H](C#N)c1cccc(F)c1` [Example 1, methyl (3R,4R)-3-(4-chlorophenyl)-4-cyano-4-(3-fluorophenyl)butanoate]: the “herbicidal activity against Alopecurus myosuroides” value in the series on Alopecurus myosuroides is reported as 80 to 100%. The “herbicidal activity against Veronica persica” value with Veronica persica [1] fell in the range of 80 to 100%. Moreover, the “herbicidal activity against Lolium multiflorum” value with Lolium multiflorum lay in the range of 80 to 100%. In the series on Echinochloa crus-galli [2], the “herbicidal activity against Echinochloa crus-galli” value fell in the range of 80 to 100%. Also, the “herbicidal activity against Setaria viridis” value in the series on Setaria viridis [3] was 80 to 100%. Also, in the series on Polygonum convolvulus [4], the “herbicidal activity against Polygonum convolvulus” value was in the range of 80 to 100%. Moreover, the “herbicidal activity against Viola tricolor” value in the series with Viola tricolor [5] is given as 80 to 100%. The “herbicidal activity against Amaranthus retroflexus” value with Amaranthus retroflexus was in the range of 80 to 100%. Further, the “herbicidal activity against Avena fatua” value in the series on Avena fatua [6] fell in the range of 80 to 100%. Also, in series [7], the “herbicidal activity against a plurality of harmful plants” value (shortened to “herbicidal activity against a plurality”) is “good herbicidal activity”.

Consider `CCCCOC(=O)C[C@@H](c1cccc(F)c1)[C@@H](C#N)c1ccc(F)c(F)c1` [Example 86], for which the “selectivity in oilseed rape (damage)” value with oilseed rape is reported as 0%. The “herbicidal activity against Veronica persica” value in the series with Veronica persica [8] amounted to 70%. The “herbicidal activity against Echinochloa crus-galli” value in the series with Echinochloa crus-galli [9] is 80%. Besides, the “herbicidal activity against Setaria virides” value with Setaria viridis [10] turned out to be 80%. The “herbicidal activity against Polygonum convolvulus” value in the series with Polygonum convolvulus [11] turned out to be 80%. The “herbicidal activity against Viola tricolor” value in the series on Viola tricolor [12] stood at 80%. In the series on wheat, the “selectivity in wheat (damage)” value was “up to 10%”. Also, the “herbicidal activity against Avena fatua” value in the series on Avena fatua [13] is 90%. Besides, the “herbicidal activity against a plurality” value in series [7] is “good herbicidal activity”.

For the molecule `COC(=O)C[C@@H](c1cc(F)ccc1F)[C@@H](C#N)c1ccc(F)c(Br)c1` [Example 358], the “herbicidal activity against a plurality” value in series [7] is “good herbicidal activity”.

`COC(=O)C[C@@H](c1c(F)cccc1F)[C@@H](C#N)c1ccc(F)c(Br)c1` [Example 359]: in series [7], the “herbicidal activity against a plurality” value is “good herbicidal activity”.

In the case of `COC(=O)C[C@@H](c1ccc(OC)c(F)c1)[C@@H](C#N)c1ccc(F)c(F)c1` [Example 390], the “herbicidal activity against a plurality” value in series [7] is on record as “good herbicidal activity”.

Values taken from patent US9049863B2, “Substituted (3R,4R)-4-cyan-3,4-diphenylbutanoates, method for the production thereof and use thereof as herbicides and plant growth regulators” (Bayer Intellectual Property GmbH, priority 2011, dated 2015).
